Results as given in US11084798B1, “2-oxoquinazoline derivatives as methionine adenosyltransferase 2A inhibitors” (IDEAYA BIOSCIENCES, INC., priority 2018, dated 2021).

Target: hMAT2A (Homo sapiens (Human), UniProt P31153)
Test: Malachite Green Assay (MAT2A enzyme inhibition)
Assay type: biochemical
Settings: hMAT2A 50 nM, substrates 500 uM each
Method: The ability of the compound of present disclosure to inhibit MAT2A enzyme was determined using the Malachite Green or Phosphate Sensor Fluorescence Assay described below.
L-methionine Substrate: Alfa Aesar catalog #J61904
ATP Substrate: Alfa Aesar cat #J60336
Malachite Green Detection Reagent: Millipore Sigma catalog #MAK307-1KT
Assay buffer: 50 mM Tris, pH 7.5/50 mM KCl/10 mM MgCl2/0.01% Brij-35/1 mM DTT/0.1% BGG
The plate was centrifuged at 1000 rpm for 1 minute and then incubated at room temperature for 1 hour. 5 μL of malachite green detection reagent was added to all the test wells and the plate was centrifuged at 1000 rpm for 1 minute and then incubated at room temperature for 30 minutes. The plate was read for absorbance at 620 nm on a plate reader (e.g., Infinite M1000).

Chain of hMAT2A (P31153 whole entry): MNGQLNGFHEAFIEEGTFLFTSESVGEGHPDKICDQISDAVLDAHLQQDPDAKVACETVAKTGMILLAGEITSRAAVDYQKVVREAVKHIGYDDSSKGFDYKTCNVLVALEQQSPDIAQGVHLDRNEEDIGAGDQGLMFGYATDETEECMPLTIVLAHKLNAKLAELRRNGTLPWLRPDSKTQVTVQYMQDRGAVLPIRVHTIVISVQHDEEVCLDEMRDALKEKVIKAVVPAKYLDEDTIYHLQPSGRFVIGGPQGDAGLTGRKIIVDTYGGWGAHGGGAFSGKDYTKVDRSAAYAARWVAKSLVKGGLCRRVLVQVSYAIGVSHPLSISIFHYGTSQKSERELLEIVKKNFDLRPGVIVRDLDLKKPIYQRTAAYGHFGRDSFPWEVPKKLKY

7-chloro-4-(dimethylamino)-1-(3-(2-phenoxyethyl)phenyl)quinazolin-2(1H)-one [Example 10]
IC50: 200 to 500 nM
